Data published in patent US8673914B2, “Use of phosphodiesterase inhibitors for treating multidrug resistance” (St. John's University, priority 2011, dated 2014).
Marks after values point to notes of the source that are not given here.

How the values were obtained:
HEK/MRP7 cells [1] = experiment: [^3H]-paclitaxel accumulation (Example 4); assay type: cell-based
Procedure: (§1) The effect of PDE5 inhibitors on the intracellular accumulation of paclitaxel in HEK293-pcDNA3.1 and HEK/MRP7 cells was measured using [^3H]-paclitaxel. […] For efflux studies, the cells were treated the same as in the drug accumulation study, and then washed three times with ice-cold PBS, and suspended in fresh medium with or without PDE5 inhibitors. Aliquots were evenly collected at various time points (0, 30, 60, and 120 min). Samples from both accumulation and efflux experiments were washed with ice-cold PBS three times and placed in scintillation fluid, and the radioactivity was measured in a Packard TRI-CARB® 1900CA liquid scintillation analyzer from Packard Instrument Company, Inc. (Downers Grove, Ill.).

HEK/ABCB1 (ABCB1) = experiment: MTT cytotoxicity/reversal assay (Example 1); conditions: HEK/ABCB1
Procedure: The KB-C2 and KB-3-1 were kindly provided by Dr. Akiyama (Kagoshima University, Japan). […] Similarly, the HEK/MRP1 (ABCC1) and HEK/ABCB1 cells were generated by transfecting the HEK293 cells with either the MRP1 expression vector or the ABCB1 expression vector. All of the cell lines were grown in Dulbecco's modified Eagle's medium (DMEM) supplemented with 10% bovine serum, 100 units/ml penicillin, and […] streptomycin in a humidified incubator containing 5% CO2 at 37° C.
(§2) The MTT assay was used to assess cytotoxicity. The cultured cells were harvested with trypsin and resuspended in a final concentration of 4×10^3 cells/well for KB-3-1; 7.5×10^3 cells/well for KB-C2; and 8×10^3 for all of the other cell lines used in this study. Cells were seeded evenly in 96-well multiplates. […] After 68 h of incubation, 20 μl of the MTT solution (4 mg/ml) was added to each well, and the plate was further incubated for 4 h at 37° C., allowing viable cells to convert the yellow-colored MTT into dark-blue formazan crystals. Subsequently, the medium was discarded, and 100 μl of DMSO was added into each well to dissolve the formazan crystals, generating purple color. The absorbance was determined at 570 nm by an OPSYS Microplate Reader from DYNEX Technologies, Inc. (Chantilly, Va.). […] The degree of the reversal of multidrug resistance (MDR) was calculated by dividing the IC50 of an anticancer drug, e.g., an antineoplastic or chemotherapeutic drug (agent, compound), in a cell type in the absence of a reversal agent by the IC50 of the anticancer drug in the same cell type in the presence of the reversal agent. The IC50 values were calculated from survival curves using the Bliss method.

HEK293/pcDNA3.1 = experiment: MTT cytotoxicity/reversal assay (Example 1); assay type: cell-based
In short: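 KB-3-1, ABCB1-overexpressing KB-C2, and HEK293 transfected with empty pcDNA3.1 or ABCG2 (R482) vector. MTT read at 570 nm after 68 h drug exposure plus 4 h MTT at 37 °C. IC50 from survival curves by Bliss method; fold-reversal = IC50 without reversal agent divided by IC50 with it.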

HEK/MRP7 cells [2] = experiment: [^3H]-paclitaxel efflux (Example 4); assay type: cell-based; conditions: for accumulated [^3H]-paclitaxel remaining in cells: absence of PDE5 inhibitors; for percentage of intracellular [^3H]-paclitaxel: 5 μM PDE5 inhibitor
Procedure: as §1

HEK/MRP7 = experiment: MTT cytotoxicity assay (Example 4); assay type: cell-based;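 further: drug IC50 in HEK/MRP7 divided by IC50 in parental HEK293-pcDNA3.1 cells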
Procedure: (§3) The MRP7 cDNA was generously provided by Dr. Gary Kruh (University of Illinois, Chicago, Ill.) and inserted into the pcDNA3.1 expression vector. […] Individual colonies were selected in medium containing G418 (1 mg/ml) and cultured for further analysis.
(§4) MTT colorimetric assay was performed to analyze the drug sensitivity as previously described (Shi et al. (2007) Cancer Res. 67:11012-20). HEK293-pcDNA3.1 and HEK/MRP7 cells were seeded into 96-well plates in triplicate at 6000 cells/well.
(§5) After drug incubation of 68 h, 20 μl MTT solution (4 mg/ml) was added into each well. […] The Bliss method was used to calculate the IC50 values according to survival curves.

HEK 293-pcDNA-3.1 = experiment: MTT cytotoxicity assay (Example 4); assay type: cell-based
Procedure: as §3, §4, §5

KB-C2 (ABCB1) = experiment: MTT cytotoxicity/reversal assay (Example 1); assay type: cell-based, human
Procedure: (§6) The KB-C2 and KB-3-1 were kindly provided by Dr. Akiyama (Kagoshima University, Japan). HEK293-pcDNA3.1 and wild-type HEK/ABCG2 transfected cells were established by selection with G418 after transfecting HEK293 with either (1) empty pcDNA3.1 vector or (2) pcDNA3.1 vector containing full length of ABCG2 coding arginine (R) at amino acid position 482, and were then cultured in a medium with 2 mg/ml of G418 (ABCG2-482-R2 cells). Similarly, the HEK/MRP1 (ABCC1) and HEK/ABCB1 cells were generated by transfecting the HEK293 cells with either the MRP1 expression vector or the ABCB1 expression vector. All of the cell lines were grown in Dulbecco's modified Eagle's medium (DMEM) supplemented with 10% bovine serum, 100 units/ml penicillin, and […] streptomycin in a humidified incubator containing 5% CO2 at 37° C.
as §2

KB-3-1 = experiment: MTT cytotoxicity/reversal assay (Example 1); assay type: cell-based, human
Procedure: as §6, §2

KB-C2 cells (ABCB1) = experiment: [^3H]-paclitaxel accumulation (Example 1); assay type: cell-based, human
Procedure: The intracellular accumulation of [^3H]-paclitaxel was measured as follows. […] Intracellular paclitaxel accumulation was measured by incubating cells with 0.1 μM [^3H]-paclitaxel for 2 h in the presence or absence of the reversal agents at 37° C. The cells were washed three times with ice-cold PBS, then suspended in fresh medium with or without reversal agents at 37° C. Aliquots of the extracellular medium (40 μl) were collected at various time points (0, 60, 120 min), and finally the cells were collected and lysed in 10 mM lysis buffer (pH 7.4, containing 1% Triton X-100 and 0.2% SDS). Each sample was placed in scintillation fluid and the radioactivity was measured in a Packard TRI-CARB1 1900CA liquid scintillation analyzer from Packard Instrument Company, Inc. (Downers Grove, Ill.).

[3] = HEK293/pcDNA3.1, +5 μM reversal agent
[4] = HEK293/pcDNA3.1, +10 μM reversal agent
[5] = HEK 293-pcDNA-3.1, +1.25 μM reversal agent
[6] = HEK 293-pcDNA-3.1, +5 μM reversal agent

## CC(=O)O[C@H]1C(=O)[C@@]2(C)[C@H]([C@H](OC(=O)c3ccccc3)[C@]3(O)C[C@H](OC(=O)[C@H](O)[C@@H](NC(=O)c4ccccc4)c4ccccc4)C(C)=C1C3(C)C)[C@]1(OC(C)=O)CO[C@@H]1C[C@@H]2O [Paclitaxel, paclitaxel]
HEK/MRP7 cells [1]; no inhibitor
  intracellular concentration of [^3H]-paclitaxel relative to parental HEK293-pcDNA3.1: 28.5%
HEK/ABCB1 (ABCB1); alone
  fold reversal, paclitaxel: (1.00)
HEK293/pcDNA3.1; HEK293/pcDNA3.1, alone
  fold reversal, paclitaxel: (1.00)
HEK/MRP7 cells [2]; 30 min
  accumulated [^3H]-paclitaxel remaining in cells: 62.43%
HEK/MRP7 cells [2]; 60 min
  accumulated [^3H]-paclitaxel remaining in cells: 39.47%
HEK/MRP7 cells [2]; 120 min
  accumulated [^3H]-paclitaxel remaining in cells: 23.44%
HEK/MRP7; alone
  fold-resistance, paclitaxel: (9.21)
HEK 293-pcDNA-3.1; HEK 293-pcDNA-3.1, alone
  fold-resistance, paclitaxel: (1.0)^b
HEK 293-pcDNA-3.1; read-out: IC50 of paclitaxel
  IC50: 11.6 ± 1.33 nM
KB-C2 (ABCB1); alone
  fold reversal, paclitaxel: (1.00)
KB-3-1; alone
  fold reversal, paclitaxel: (1.00)
KB-C2 cells (ABCB1); no reversal agent
  intracellular concentration of paclitaxel relative to parental KB-3-1 cells: approximately 55%

## CN1CC(=O)N2[C@H](c3ccc4c(c3)OCO4)c3[nH]c4ccccc4c3C[C@@H]2C1=O [Tadalafil, tadalafil]
HEK/MRP7 cells [1]; 5 μM, 2 h
  increase of intracellular accumulation of [^3H]-paclitaxel: 2.1 fold
HEK/ABCB1 (ABCB1); +5 μM reversal agent
  fold reversal, cisplatin: (0.94)
  fold reversal, paclitaxel: (1.37)
  fold reversal, vincristine: (1.50)
HEK/ABCB1 (ABCB1); +10 μM reversal agent
  fold reversal, cisplatin: (1.09)
  fold reversal, paclitaxel: (2.26)
  fold reversal, vincristine: (2.45)
HEK293/pcDNA3.1; HEK293/pcDNA3.1 (Table 6), +10 μM reversal agent
  fold reversal, vincristine: (1.09)
HEK293/pcDNA3.1; [3]
  fold reversal, cisplatin: (0.99)
  fold reversal, paclitaxel: (0.99)
  fold reversal, vincristine: (1.15)
HEK293/pcDNA3.1; [4]
  fold reversal, SN-38: (0.96)
  fold reversal, cisplatin: (1.12)
  fold reversal, paclitaxel: (1.21)
  fold reversal, vincristine: (1.35)
HEK/MRP7 cells [2]; 30 min
  percentage of intracellular [^3H]-paclitaxel: 76.44%
HEK/MRP7 cells [2]; 60 min
  percentage of intracellular [^3H]-paclitaxel: 63.41%
HEK/MRP7 cells [2]; 120 min
  percentage of intracellular [^3H]-paclitaxel: 46.48%
HEK/MRP7; +1.25 μM reversal agent
  fold-resistance, docetaxel: (10.91)
  fold-resistance, paclitaxel: (8.06)
  fold-resistance, vinblastine: (4.58)
HEK/MRP7; +5 μM reversal agent
  fold-resistance, cisplatin: (1.12)
  fold-resistance, docetaxel: (8.35)
  fold-resistance, paclitaxel: (5.87)
  fold-resistance, vinblastine: (3.62)
HEK 293-pcDNA-3.1; [5]
  fold-resistance, docetaxel: (1.09)
  fold-resistance, paclitaxel: (1.07)
  fold-resistance, vinblastine: (1.06)
HEK 293-pcDNA-3.1; [6]
  fold-resistance, cisplatin: (1.11)
  fold-resistance, docetaxel: (1.02)
  fold-resistance, paclitaxel: (0.93)
  fold-resistance, vinblastine: (0.95)
KB-C2 (ABCB1); +5 μM reversal agent
  fold reversal, cisplatin: (1.01)
  fold reversal, colchicine: (4.19)
  fold reversal, paclitaxel: (2.53)
KB-C2 (ABCB1); +10 μM reversal agent
  fold reversal, cisplatin: (0.93)
  fold reversal, colchicine: (6.38)
  fold reversal, paclitaxel: (4.48)
KB-3-1; +5 μM reversal agent
  fold reversal, cisplatin: (0.96)
  fold reversal, colchicine: (0.86)
  fold reversal, paclitaxel: (0.93)
KB-3-1; +10 μM reversal agent
  fold reversal, cisplatin: (1.06)
  fold reversal, colchicine: (0.89)
  fold reversal, paclitaxel: (1.02)
KB-C2 cells (ABCB1); 10 μM
  effect on paclitaxel accumulation: had significant effects on paclitaxel accumulation
